Data from patent US7112601B2, “Cycloalkyl heterocycles for treating hepatitis C virus” (priority 2003, dated 2006).

What follows are molecules tested against T1, HCV NS5B RdRp (Hepatitis C virus genotype 1b, UniProt Q9WMX2) (assay: HCV NS5B RdRp enzyme inhibition assay).
T1 construct: The protein was expressed with an 18 amino acid C-terminal truncation to enhance the solubility; made in house; host or cells: E. coli BL21(DE3)
T1 sequence (Q9WMX2 2420-2992): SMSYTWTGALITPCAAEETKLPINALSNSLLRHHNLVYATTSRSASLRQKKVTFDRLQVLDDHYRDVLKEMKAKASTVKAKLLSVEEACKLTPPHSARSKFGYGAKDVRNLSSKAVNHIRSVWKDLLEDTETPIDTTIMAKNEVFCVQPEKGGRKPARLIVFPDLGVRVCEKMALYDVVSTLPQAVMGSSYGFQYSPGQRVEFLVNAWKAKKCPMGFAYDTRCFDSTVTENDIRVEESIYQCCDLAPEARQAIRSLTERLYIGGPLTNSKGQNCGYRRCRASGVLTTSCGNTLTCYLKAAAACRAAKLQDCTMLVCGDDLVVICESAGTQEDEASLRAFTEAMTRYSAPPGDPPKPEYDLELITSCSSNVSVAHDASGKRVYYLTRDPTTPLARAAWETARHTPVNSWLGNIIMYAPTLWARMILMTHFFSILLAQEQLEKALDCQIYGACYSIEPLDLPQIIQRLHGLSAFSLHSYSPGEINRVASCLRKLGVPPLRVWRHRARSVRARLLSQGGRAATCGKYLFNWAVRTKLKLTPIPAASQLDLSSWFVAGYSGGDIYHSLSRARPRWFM
Format: biochemical
Method: HCV NS5B RdRp cloning, expression, and purification. The cDNA encoding the NS5B protein of HCV, genotype 1b, was cloned into the pET21a expression vector. The protein was expressed with an 18 amino acid C-terminal truncation to enhance the solubility. The E. coli competent cell line BL21(DE3) was used for expression of the protein. Cultures were grown at 37° C. for ˜4 hours until the cultures reached an optical density of 2.0 at 600 nm. The cultures were cooled to 20° C. and induced with 1 mM IPTG. Fresh ampicillin was added to a final concentration of 50 ug/ml and the cells were grown overnight at 20° C.
Cell pellets (3L) were lysed for purification to yield 15–24 mgs of purified NS5B. The lysis buffer consisted of 20 mM Tris-HCl, pH 7.4, 500 mM NaCl, 0.5% triton X-100, 1 mM DTT, 1 mM EDTA, 20% glycerol, 0.5 mg/ml lysozyme, 10 mM MgCl2, 15 ug/ml deoxyribonuclease I, and Complete TM protease inhibitor tablets (Roche). After addition of the lysis buffer, frozen cell pellets were resuspended using a tissue homogenizer. To reduce the viscosity of the sample, aliquots of the lysate were sonicated on ice using a microtip attached to a Branson sonicator. The sonicated lysate was centrifuged at 100,000×g for 1 hr at 4° C. and filtered through a 0.2 μm filter unit (Corning).
The protein was purified using three sequential chromatography steps: Heparin sepharose CL-6B, polyU sepharose 4B, and Hitrap SP sepharose (Pharmacia). The chromatography buffers were identical to the lysis buffer but contained no lysozyme, deoxyribonuclease I, MgCl2 or protease inhibitor and the NaCl concentration of the buffer was adjusted according to the requirements for charging the protein onto the column. Each column was eluted with a NaCl gradient which varied in length from 5–50 column volumes depending on the column type. After the final chromatography step, the resulting purity of the enzyme is >90% based on SDS-PAGE analysis. The enzyme was aliquoted and stored at −80° C.
HCV NS5B RdRp enzyme assay. HCV RdRp genotype 1b assays were run in assay buffer composed of 20 mM Tris-HCl, pH 7.5, 2.5 mM KCl, 5 mM MgCl2, 1 mM DTT, 1.6 U RNAse inhibitor (Promega N2515), in 96 well plates (Falcon 3918). All compounds were serially diluted in DMSO and diluted further in assay buffer such that the final concentration of DMSO in the assay was 2%. Compounds were serially diluted (3-fold each time) for a 7 point inhibition analysis. HCV RdRp genotype 1b enzyme was used at a final concentration of 28 nM. A polyA template was used at 28 nM, and the oligo-dT12-18 primer was used at 840 nM final concentration. Preannealed primer and template were obtained commercially (Amersham 27-787802). ^3H-UTP was used at 0.125 μCi (1 μM total UTP). Reaction was initiated by the addition of enzyme. Reactions were incubated at 30° C. for 45 min, and stopped by adding 30 ul of 20% ice cold TCA. Plates were chilled for 30 minutes and harvested onto Unifilter-96, GF/B plates (Packard, 6005177) using a Packard FilterMate Cell Harvester. The harvest plates were prewashed 3 times, 200 ul/well, with 100 mM NaPPi. Harvested filters were washed 30 times, 200 ul/well, with distilled water followed by ethanol. Filter plates were dried, and 30 ul/well microscint-20 was added. Plates were read on a Packard Top Count NXT.
The IC50 values for compounds were determined using […] different [I], combined with 7 nM enzyme, 800 ng of the template-primer polyC/oligoG12 (1:5 molar ratio), and 0.7 uM of ^3H GTP containing 1 uCi. The observed fractional activity (fa=vi/vo) was used in the equation IC50=[I]/(1/fa-1) to determine a single point IC50 value. Typically, the single point IC50 values derived from [I] that produced fractional activities in the range of 0.1 to 0.8 relative to the uninhibited control were averaged to calculate the IC50 value for each compound.
For `CC(C)(C)OC(=O)/C=C/c1cn(C2CCCCC2)c(-c2ccc(OCc3ccccc3)cc2)n1` [Example 44, tert-butyl (2E)-3-{2-[4-(benzyloxy)phenyl]-1-cyclohexyl-1H-imidazol-4-yl}-2-propenoate], the IC50 was greater than 25 µM.
`CCOC(=O)/C(C)=C/c1cc(-c2ccc(OCc3ccccc3)cc2)n(C2CCCCC2)n1` [Example 6, Ethyl (2E)-3-{5-[4-(benzyloxy)phenyl]-1-cyclohexyl-1H-pyrazol-3-yl}-2-methyl-2-propenoate] showed an IC50 greater than 25 µM.
In the case of `COc1ccc(-c2ccc(Cl)cc2)c(COc2ccc(-c3cc(CCC(=O)O)nn3C3CCCCC3)cc2)c1` [Example 17, 3-(5-{4-[(4′-chloro-4-methoxy-1,1′-biphenyl-2-yl)methoxy]phenyl}-1-cyclohexyl-1H-pyrazol-3-yl)propanoic acid], the IC50 is reported as 1.8 µM.
Molecule `CCOC(=O)C#Cc1cc(-c2ccc(OCc3cc(OC)ccc3-c3ccc(Cl)cc3)cc2)n(C2CCCCC2)n1` [Example 20, Ethyl 3-(5-{4-[(4′-chloro-4-methoxy-1,1′-biphenyl-2-yl)methoxy]phenyl}-1-cyclohexyl-1H-pyrazol-3-yl)-2-propynoate] has an IC50 greater than 25 µM.
Molecule `COc1ccc(-c2ccc(Cl)cc2)c(COc2ccc(-c3nc(/C=C/C(=O)O)cn3C3CCCCC3)cc2)c1` [Example 48, (2E)-3-(2-{4-[(4′-chloro-4-methoxy-1,1′-biphenyl-2-yl)methoxy]phenyl}-1-cyclohexyl-1H-imidazol-4-yl)-2-propenoic acid] has an IC50 of 5.3 µM.
With `CCOC(=O)/C(C)=C/c1cc(-c2ccc(OCc3cc(C(=O)NC)ccc3-c3ccc(Cl)cc3)cc2)n(C2CCCCC2)n1` [Example 12, Ethyl (2E)-3-(5-{4-[(4′-Chloro-4-N-methylcarbamoyl-1,1′-biphenyl-2-yl)methoxy]phenyl}-1-cyclohexyl-1H-pyrazol-3-yl)-2-methyl-2-propenoate] the IC50 was greater than 25 µM.
`COc1ccc(-c2ccc(Cl)cc2)c(COc2ccc(-c3cc(/C=C(\C)C(=O)O)nn3C3CCCCC3)cc2)c1` [Example 9, (2E)-3-(5-{4-[(4′-chloro-4-methoxy-1,1′-biphenyl-2-yl)methoxy]phenyl}-1-cyclohexyl-1H-pyrazol-3-yl)-2-methyl-2-propenoic acid] gave an IC50 of 0.27 µM.
In the case of `C/C(=C\c1cc(C2CCCCC2)n(-c2ccc(OCc3ccccc3)cc2)n1)C(=O)O` [Example 35, (2E)-3-{1-[4-(benzyloxy)phenyl]-5-cyclohexyl-1H-pyrazol-3-yl}-2-methyl-2-propenoic acid], the IC50 is reported as greater than 25 µM.
In the case of `COC(=O)CCc1cc(-c2ccc(OCc3cc(OC)ccc3-c3ccc(Cl)cc3)cc2)n(C2CCCCC2)n1` [Example 16, Methyl 3-(5-{4-[(4′-chloro-4-methoxy-1,1′-biphenyl-2-yl)methoxy]phenyl}-1-cyclohexyl-1H-pyrazol-3-yl)propanoate], the IC50 is reported as greater than 25 µM.
Work on `O=C(O)/C=C/c1cc(C2CCCCC2)n(-c2ccc(OCc3ccccc3)cc2)n1` [Example 31, (2E)-3-{1-[4-(benzyloxy)phenyl]-5-cyclohexyl-1H-pyrazol-3-yl}-2-propenoic acid] yielded an IC50 of 4.5 µM.
Molecule `COC(=O)/C=C/c1cn(C2CCCCC2)c(-c2ccc(OCc3ccccc3)cc2)n1` [Example 46, Methyl (2E)-3-{2-[4-(benzyloxy)phenyl]-1-cyclohexyl-1H-imidazol-4-yl}-2-propenoate] has an IC50 greater than 25 µM.
`COC(=O)/C=C/c1nn(C2CCCCC2)c(-c2ccc(OCc3cc(OC)ccc3-c3ccc(Cl)cc3)cc2)c1-c1ccccc1` [Example 27] showed an IC50 greater than 25 µM.
Work on `CCOC(=O)/C(C)=C/c1cc(-c2ccc(OCc3cc(OC)ccc3-c3ccc(Cl)cc3)cc2)n(C2CCCCC2)n1` [Example 8, Ethyl (2E)-3-(5-{4-[(4′-chloro-4-methoxy-1,1′-biphenyl-2-yl)methoxy]phenyl}-1-cyclohexyl-1H-pyrazol-3-yl)-2-methyl-2-propenoate] yielded an IC50 greater than 25 µM.
`O=C(O)CCc1cc(-c2ccc(OCc3ccccc3)cc2)n(C2CCCCC2)n1` [Example 15, 3-{5-[4-(benzyloxy)phenyl]-1-cyclohexyl-1H-pyrazol-3-yl}propanoic acid] was tested, and the IC50 was greater than 25 µM.
Work on `COC(=O)CCc1cc(C2CCCCC2)n(-c2ccc(OCc3cc(OC)ccc3-c3ccc(Cl)cc3)cc2)n1` [Example 42, Methyl 3-(1-{4-[(4′-chloro-4-methoxy-1,1′-biphenyl-2-yl)methoxy]phenyl}-5-cyclohexyl-1H-pyrazol-3-yl)propanoate] yielded an IC50 greater than 25 µM.
Molecule `COc1ccc(-c2ccc(Cl)cc2)c(COc2ccc(-c3c(-c4ccccc4)c(/C=C/C(=O)O)nn3C3CCCCC3)cc2)c1` [Example 28] has an IC50 of 1.3 µM.
With `CCOC(=O)/C(C)=C/c1cc(C2CCCCC2)n(-c2ccc(OCc3cc(C(=O)NC)ccc3-c3ccc(Cl)cc3)cc2)n1` [Example 38] the IC50 was greater than 25 µM.
`COC(=O)/C=C/c1cc(C2CCCCC2)n(-c2ccc(OCc3cc(OC)ccc3-c3ccc(Cl)cc3)cc2)n1` [Example 32, Methyl (2E)-3-(1-{4-[(4′-chloro-4-methoxy-1,1′-biphenyl-2-yl)methoxy]phenyl}-5-cyclohexyl-1H-pyrazol-3-yl)-2-propenoate] showed an IC50 greater than 25 µM.
For `COC(=O)/C=C/c1cn(C2CCCCC2)c(-c2ccc(OCc3cc(OC)ccc3-c3ccc(Cl)cc3)cc2)n1` [Example 47, Methyl (2E)-3-(2-{4-[(4′-chloro-4-methoxy-1,1′-biphenyl-2-yl)methoxy]phenyl}-1-cyclohexyl-1H-imidazol-4-yl)-2-propenoate], the IC50 was greater than 25 µM.
`O=C(O)/C=C/c1cc(-c2ccc(OCc3ccccc3)cc2)n(C2CCCCC2)n1` [Example 3, (2E)-3-[1-cyclohexyl-5-(4-benzyloxyphenyl)-1H-pyrazol-3-yl]-2-propenoic acid] gave an IC50 of 15 µM.
Molecule `CCOC(=O)c1nn(C2CCCCC2)c(-c2ccc(OCc3ccccc3)cc2)c1Br` [Example 22, Ethyl 5-[4-(benzyloxy)phenyl]-4-bromo-1-cyclohexyl-1H-pyrazole-3-carboxylate] has an IC50 greater than 25 µM.
With `COC(=O)/C=C/c1cc(-c2ccc(OCc3ccccc3)cc2)n(C2CCCCC2)n1` [Example 2, Methyl (2E)-3-{5-[4-(benzyloxy)phenyl]-1-cyclohexyl-1H-pyrazol-3-yl}-2-propenoate] the IC50 was greater than 25 µM.
`CCOC(=O)/C(C)=C/c1cc(-c2ccc(OCc3cc(C(=O)OC(C)(C)C)ccc3-c3ccc(Cl)cc3)cc2)n(C2CCCCC2)n1` [Example 11, Ethyl (2E)-3-(5-{4-[(4′-chloro-4-t-butoxycarbonyl-1,1′-biphenyl-2-yl)methoxy]phenyl}-1-cyclohexyl-1H-pyrazol-3-yl)-2-methyl-2-propenoate] was tested, and the IC50 was greater than 25 µM.
In the case of `O=C(O)/C=C/c1nn(C2CCCCC2)c(-c2ccc(OCc3ccccc3)cc2)c1Br` [Example 24, (2E)-3-{5-[4-(benzyloxy)phenyl]-4-bromo-1-cyclohexyl-1H-pyrazol-3-yl}-2-propenoic acid], the IC50 is reported as 3.1 µM.
`CCOC(=O)c1cc(C2CCCCC2)n(-c2ccc(OCc3ccccc3)cc2)n1` [Example 29, Ethyl 1-[4-(benzyloxy)phenyl]-5-cyclohexyl-1H-pyrazole-3-carboxylate] gave an IC50 greater than 25 µM.
Work on `COC(=O)/C=C/c1cc(C2CCCCC2)n(-c2ccc(OCc3ccccc3)cc2)n1` [Example 30, Methyl (2E)-3-{1-[4-(benzyloxy)phenyl]-5-cyclohexyl-1H-pyrazol-3-yl}-2-propenoate] yielded an IC50 greater than 25 µM.
Work on `CNC(=O)c1ccc(-c2ccc(Cl)cc2)c(COc2ccc(-c3nc(/C=C(\C)C(=O)O)cn3C3CCCCC3)cc2)c1` [Example 54, (2E)-3-(2-{4-[(4′-chloro-4-N-methylcarbamoyl-1,1′-biphenyl-2-yl)methoxy]phenyl}-1-cyclohexyl-1H-imidazol-4-yl)-2-methyl-2-propenoic acid] yielded an IC50 of 1.6 µM.
